The values that follow come from paper PMC5915154, “Aloe-emodin as drug candidate for cancer therapy” (Oncotarget, 2018).

Test [1] deals with drug-sensitive CCRF-CEM leukemia cells. Nature of the test: Resazurin reduction assay, CCRF-CEM. The test is classed as cell-based. To be noted: Homo sapiens, 72 h. An excerpt:
(§1) The cell lines used in the present work, their origins and maintenance conditions were previously reported. In brief, drug-sensitive CCRF-CEM and multidrug resistant P-glycoprotein-over-expressing CEM/ADR5000 leukemia cells, MDA-MB-231-pcDNA3 breast cancer cells and their transfectant subline MDA-MB-231-BCRP clone 23, HCT116 (p53^+/+) colon cancer cells and its knockout clone HCT116 (p53^-/-), U87.MG glioblastoma multiform cells and their transfectant subline U87.MGΔEGFR as well as HEK293 human embryonic kidney cells transfected with or without a cDNA for ABCB5 were used. The human peripheral mononuclear cells (PMNC) were isolated from fresh blood samples of a healthy donor by using Histopaque® (Sigma-Aldrich, Taufkirchen, Germany).
(§2) Resazurin reduction assay was conducted to test the cytotoxicity of the compounds. This assay is based on the reduction of resazurin to resorufin by viable cells. […] Briefly, aliquots of 0.5×10^4 adherent cells which were allowed to attach overnight and 1×10^4 suspension cells per well were seeded in 96-well-plates with or without the addition of varying concentrations of the test substance to get a total volume of 200 μL/well. After 72 h incubation and addition of resazurin (Sigma-Aldrich) for 4 h, staining was measured by an Infinite M2000 ProTM plate reader (Tecan, Germany) using an excitation wavelength of 544 nm and an emission wavelength of 590 nm. Each assay was independently performed for at least three times, with six parallel replicates each. The protocol has been recently reported. Fifty percent inhibition concentrations (IC50) represent the drug concentrations required to inhibit 50% of cell proliferation, which were fitted with nonlinear regression using GraphPad® Prism7.
For orientation: Resazurin is reduced to fluorescent resorufin, in cell work by metabolically active cells.

Test [2] deals with multidrug-resistant P-glycoprotein-overexpressing CEM/ADR5000 leukemia cells. The test can be described thus: Resazurin reduction assay, CEM/ADR5000. The test is classed as cell-based, human. Particulars: for IC50: Homo sapiens, CEM/ADR5000, resazurin assay, 72 h.
From the text: as §1, §2

Test [3] relates to CCRF-CEM cells. The test can be described thus: Cell cycle analysis (PI, flow cytometry). In kind it is cell-based, human. Particulars: 0.01 μM and 0.1 μM, 24 h. How it is done: The cells were collected, washed in PBS and fixed with ice-cold 96% ethanol. After washing the cells with PBS again, the cells were dissolved in PBS and stained with propidium iodide (PI, Sigma-Aldrich) at a final concentration of 50 μg/mL for 15 min in the dark. Cell cycle analyses were performed using a BD Accuri™ C6 Flow cytometer (Becton-Dickinson, Heidelberg, Germany) at 488 nm excitation wavelength, and emission was measured by a 610/20 nm band pass filter. All experiments were performed at least in triplicates. The protocol has been recently reported by us.
On the technique in general: Flow cytometry measures light scatter and fluorescence of single cells or particles in a stream.

Test [4] concerns CCRF-CEM cells. Nature of the test: Mitochondrial membrane potential (JC-1, flow cytometry). In kind it is cell-based, human. Particulars: CCRF-CEM, 0.01, 0.1, and 1 μM, 48 h. An excerpt:
The JC-1 Mitochondrial Membrane Potential Assay Kit (Cayman Chemical, Ann Arbor, MI, USA) was applied for the detection of MMP by flow cytometry according to the manufacturer’s instructions. The cationic dye, 5, 5’, 6, 6’- tetrachloro- 1, 1’, 3, 3’- tetraethylbenzimidazolylcarbocyanine iodide (JC-1) enters the mitochondria and changes its fluorescent properties based on the aggregation of the probe. In healthy cells having high MMP, JC-1 forms complexes known as J-aggregates with intense red fluorescence. On the other hand, in cells with low MMP, JC-1 remains in its monomeric form showing green fluorescence. […] A LSR-Fortessa FACS analyzer (Becton–Dickinson) was used to detect the J-aggregate form of JC-1 with an excitation wavelength of 535 ± 20 nm and an emission wavelength of 590 ± 20 nm as well as the monomeric form of JC-1 at excitation and emission wavelengths of 485 and 535 nm, respectively. The results were analyzed by the FlowJo software (Celeza, Olten, Switzerland). 2×10^4 cells were counted for each experiment which were repeated in triplicate.

Test [5] concerns CCRF-CEM cells. The test can be described thus: Annexin V/PI detection of apoptosis and necrosis. In kind it is cell-based, human. Particulars: 0.1 μM, 72 h. From the text: A commercial annexin V/PI detection apoptosis kit was used to detect early apoptosis and necrosis according to the manufacturer’s instructions (Life Technologies, Carlsbad, CA, USA). Annexin V is a calcium-dependent phospholipid-binding protein, which binds to phosphatidylserine (PS). PS is predominantly located at the inner side of the plasma membrane under normal conditions and moves to outer surface of the membrane upon the onset of early apoptosis. This can be detected FITC-labeled annexin V. PI is a marker of late apoptosis and necrosis. We treated aliquots of 1×10^6 CCRF-CEM cells with 0.5-, 1-, 2- and 4-fold IC50 of Aloe-emodin for 48, 72 or 96 h, respectively. After washing the cells with PBS, they were stained with annexin V/FITC at room temperature for 10-15 min. Subsequently, cells were washed again and stained with PI in the dark. Then, the results were analyzed by a BD Accuri™ C6 flow cytometer at excitation wavelength 488 nm and emission wavelength 530 nm to record annexin V/FITC signals. The fluorescence of PI was detected at 488 nm excitation and was measured by a 610/20 nm band pass filter. At least three independent experiments were performed..

Take `COc1cccc2c1C(=O)c1c(O)c3c(c(O)c1C2=O)C[C@@](O)(C(=O)CO)C[C@@H]3O[C@H]1C[C@H](N)[C@H](O)[C@H](C)O1` [doxorubicin, Doxorubicin, reference compound]: the IC50 in test [1] is 0.0007 µM; in test [2], 11 µM. Moreover, the cell cycle arrest result in the test on CCRF-CEM cells [3] is “induced both S- and G2/M-arrest”. Besides, the “MMP depolarization (JC-1 fluorescence)” value in the test on CCRF-CEM cells [4] is recorded as “shift from red to green fluorescence”. Further, the “apoptotic or necrotic cell death” value in the test on CCRF-CEM cells [5] was “late apoptosis and early necrosis”.
On to `COc1cc(O)c2c(c1)C(=O)c1cc(C)cc(O)c1C2=O` [physcion], for which the IC50 in test [1] came to 124 µM; in test [2], 74.8 µM. Moreover, the “degree of resistance (IC50 CEM/ADR5000 divided by IC50 CCRF-CEM)” value in test [2] (collateral sensitivity of CEM/ADR5000) stood at 0.61 fold.
As for `Cc1cc(O)c2c(c1)C(=O)c1cc(O)cc(O)c1C2=O` [emodin, Emodin], the IC50 turned out to be 35.6 µM in test [1] and 35.3 µM in test [2].
As to `O=C(O)c1cc(O)c2c(c1)C(=O)c1cccc(O)c1C2=O` [rhein], the figures for the IC50 in test [1] and in test [2] were 34.4 µM and 46.9 µM, respectively.

What is called IC50 is the concentration that inhibits the measured activity by half. A higher IC50 goes with weaker potency.
